Results from PubChem BioAssay (NCI).
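Abbreviation: GI50, concentration required for 50% inhibition of growth. TGI is the concentration that stops growth completely.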

Assays:
Assay in all cases: inhibition of tumour cell growth, NCI panel, 384-well format
PC-3 prostate = test system: PC-3 prostate
HT29 colon = test system: HT29 colon
MDA-MB-231 breast = test system: MDA-MB-231 breast
SW-620 colon = test system: SW-620 colon
SK-MEL-2 melanoma = test system: SK-MEL-2 melanoma
UACC-257 melanoma = test system: UACC-257 melanoma
NCI-H522 lung = test system: NCI-H522 lung
UACC-62 melanoma = test system: UACC-62 melanoma
UO-31 renal = test system: UO-31 renal
CCRF-CEM leukemia = test system: CCRF-CEM leukemia
BT-549 breast = test system: BT-549 breast
NCI-H322M lung = test system: NCI-H322M lung
HOP-92 NSCLC = test system: HOP-92 NSCLC
HCC-2998 colon = test system: HCC-2998 colon
A498 renal = test system: A498 renal
SK-MEL-28 melanoma = test system: SK-MEL-28 melanoma
ACHN renal = test system: ACHN renal
NCI-H226 lung = test system: NCI-H226 lung
SF-539 CNS = test system: SF-539 CNS
OVCAR-4 ovarian = test system: OVCAR-4 ovarian
HS 578T breast = test system: HS 578T breast
EKVX NSCLC = test system: EKVX NSCLC
OVCAR-5 ovarian = test system: OVCAR-5 ovarian
IGROV1 ovarian = test system: IGROV1 ovarian
RPMI-8226 leukemia = test system: RPMI-8226 leukemia
SR leukemia = test system: SR leukemia
MALME-3M melanoma = test system: MALME-3M melanoma
M14 melanoma = test system: M14 melanoma
U251 glioblastoma = test system: U251 glioblastoma
MCF7 breast = test system: MCF7 breast
SF-295 CNS = test system: SF-295 CNS
NCI/ADR-RES ovarian = test system: NCI/ADR-RES ovarian
SK-MEL-5 melanoma = test system: SK-MEL-5 melanoma
OVCAR-8 ovarian = test system: OVCAR-8 ovarian
SK-OV-3 ovarian = test system: SK-OV-3 ovarian
MDA-MB-468 breast = test system: MDA-MB-468 breast
CAKI-1 renal = test system: CAKI-1 renal
SN12C renal = test system: SN12C renal
NCI-H460 NSCLC = test system: NCI-H460 NSCLC
COLO 205 colon = test system: COLO 205 colon
HOP-62 NSCLC = test system: HOP-62 NSCLC
DU-145 prostate = test system: DU-145 prostate
LOX IMVI melanoma = test system: LOX IMVI melanoma
KM12 colon = test system: KM12 colon
SNB-19 CNS = test system: SNB-19 CNS
HCT-116 colon = test system: HCT-116 colon
NCI-H23 lung = test system: NCI-H23 lung

## CS(=O)(=O)N1CCN(Cc2cc3nc(-c4cccc5[nH]ncc45)nc(N4CCOCC4)c3s2)CC1
PC-3 prostate
  GI50: 165 nM
  TGI: 7730 nM
HT29 colon
  GI50: 744 nM
  TGI: 14700 nM
MDA-MB-231 breast
  GI50: 2130 nM
  TGI: > 100000 nM
SW-620 colon
  GI50: 2420 nM
  TGI: > 100000 nM
SK-MEL-2 melanoma
  GI50: 7040 nM
  TGI: > 100000 nM
UACC-257 melanoma
  GI50: 2330 nM
  TGI: > 100000 nM
NCI-H522 lung
  GI50: 391 nM
  TGI: 7580 nM
UACC-62 melanoma
  GI50: 238 nM
  TGI: 1930 nM
UO-31 renal
  GI50: 478 nM
  TGI: 9800 nM
CCRF-CEM leukemia
  GI50: 1800 nM
  TGI: 6980 nM
BT-549 breast
  GI50: 202 nM
  TGI: 2030 nM
NCI-H322M lung
  GI50: 442 nM
  TGI: 5320 nM
HOP-92 NSCLC
  GI50: 202 nM
  TGI: 1490 nM
HCC-2998 colon
  GI50: 723 nM
  TGI: 14300 nM
A498 renal
  GI50: 290 nM
  TGI: 1590 nM
SK-MEL-28 melanoma
  GI50: 202 nM
  TGI: 4180 nM
ACHN renal
  GI50: 460 nM
  TGI: 6920 nM
NCI-H226 lung
  GI50: 648 nM
  TGI: 4900 nM
SF-539 CNS
  GI50: 446 nM
  TGI: > 100000 nM
OVCAR-4 ovarian
  GI50: 1380 nM
  TGI: 41200 nM
HS 578T breast
  GI50: 295 nM
  TGI: 2150 nM
EKVX NSCLC
  GI50: 185 nM
  TGI: 2700 nM
OVCAR-5 ovarian
  GI50: 553 nM
  TGI: > 100000 nM
IGROV1 ovarian
  GI50: 38.6 nM
  TGI: 215 nM
RPMI-8226 leukemia
  GI50: 393 nM
  TGI: 1670 nM
SR leukemia
  GI50: 1530 nM
  TGI: 4010 nM
MALME-3M melanoma
  GI50: 223 nM
  TGI: 3030 nM
M14 melanoma
  GI50: 916 nM
  TGI: > 100000 nM
U251 glioblastoma
  GI50: 2340 nM
  TGI: > 100000 nM
MCF7 breast
  GI50: 58.2 nM
  TGI: 16300 nM
SF-295 CNS
  GI50: 454 nM
  TGI: 3590 nM
NCI/ADR-RES ovarian
  GI50: 1700 nM
  TGI: 49900 nM
SK-MEL-5 melanoma
  GI50: 795 nM
  TGI: 8530 nM
OVCAR-8 ovarian
  GI50: 1110 nM
  TGI: > 100000 nM
SK-OV-3 ovarian
  GI50: 169 nM
  TGI: 1620 nM
MDA-MB-468 breast
  GI50: 127 nM
  TGI: 685 nM
CAKI-1 renal
  GI50: 260 nM
  TGI: 6810 nM
SN12C renal
  GI50: 328 nM
  TGI: 67200 nM
NCI-H460 NSCLC
  GI50: 206 nM
  TGI: 47900 nM
COLO 205 colon
  GI50: 480 nM
  TGI: 34200 nM
HOP-62 NSCLC
  GI50: 3110 nM
  TGI: > 100000 nM
DU-145 prostate
  GI50: 581 nM
  TGI: > 100000 nM
LOX IMVI melanoma
  GI50: 827 nM
  TGI: 11700 nM
KM12 colon
  GI50: 888 nM
  TGI: > 100000 nM
SNB-19 CNS
  GI50: 4380 nM
  TGI: > 100000 nM
HCT-116 colon
  GI50: 1930 nM
  TGI: > 100000 nM
NCI-H23 lung
  GI50: 570 nM
  TGI: 18600 nM
